Results on 4 molecules are retold here after patent publication US20210395794A1, “Antimicrobial Susceptibility Assay and Kit” (The University of Manchester, priority 2018, published 2021).

Structures are written as SMILES.

In one experiment the test system is E. coli MG1655. Put plainly: Flow cytometric particle counting of proliferation with antibiotic in 20 mins (FIG. 6C). In kind it is cell-based. Conditions: sensitive strain E. coli MG1655, Terrific Broth. From the text:
Initial studies used a Sony SH-800 instrument, but all studies reported here used an Intellicyt® iQue screener PLUS. This instrument is based in significant measure on developments by Sklar and colleagues (e.g. (Edwards et al. 2009; Sklar et al. 2007; Tegos et al. 2014)), and uses segmented flow (Skeggs 1957) to sample from 96- or 384-well U- or V-bottom plates prior to their analysis. The iQue Plus contains three excitation sources (405 nm, 488 nm, 640 nm) and 7 fixed filter detectors (with a midpoint/range in nm of 445/45, 530/30, 572/28, 585/40, 615/24, 675/30, 780/60, giving 13 fluorescence channels) whose outputs are stored as both ‘height’ and area, using the FCS3.0 data file standard (Seamer et al. 1997). Forward and side scatter are obtained from the 488 nm excitation source. Detection channels are referred to by the laser used (405 nm violet VL, 488 nm blue BL, and 640 nm red RL) and the detector number in order of possible detectors with a longer wavelength. Thus RL1, as used for detecting di-S-C3(5), implies the red laser and the 675/30 detector. Data are collected from all channels, using a dynamic range of 7 logs. Many parameters may be used to vary the precise performance of the instrument. Those we found material to provide the best reproducibility and to minimise carryover, and their selected values, are as follows: Automatic prime—60 secs (in Qsol buffer); Pre-plate shake—15 s and 1500 rpm; Sip time—2 s (actual sample uptake); Additional sip time—0.5 s (the gap between sips); Pump speed—29 rpm (1.5 μL·s^−1 sample uptake); Plate model—U-bottom well plate (for 96 well plates); Mid plate cleanup—After every well (4 washes; 0.5 s each in Qsol buffer); Inter-well shake—1500 rpm; after 6 wells, 4 sec in Qsol buffer; Flush and Clean—30 sec with Decon and Clean buffers followed by 60 sec with deionised water. […] Where used, di-S-C3(5) was present at a final concentration of 3 μM; its analysis used excitation at 640 nm and detection at 675±15 nm, the fluorescence channel being referred to as RL1. […]

The next experiment relates to E. coli in UTI samples. Kind of experiment: Flow cytometric antibiotic sensitivity of positive UTI urine samples (Firsway clinic) in Terrific Broth with diS-C3(5). In kind it is cell-based. Details: key: R—resistant; S—sensitive. Conditions: antibiotic at nominal 3x MIC. From the text:
Initial studies used a Sony SH-800 instrument, but all studies reported here used an Intellicyt® iQue screener PLUS. This instrument is based in significant measure on developments by Sklar and colleagues (e.g. (Edwards et al. 2009; Sklar et al. 2007; Tegos et al. 2014)), and uses segmented flow (Skeggs 1957) to sample from 96- or 384-well U- or V-bottom plates prior to their analysis. The iQue Plus contains three excitation sources (405 nm, 488 nm, 640 nm) and 7 fixed filter detectors (with a midpoint/range in nm of 445/45, 530/30, 572/28, 585/40, 615/24, 675/30, 780/60, giving 13 fluorescence channels) whose outputs are stored as both ‘height’ and area, using the FCS3.0 data file standard (Seamer et al. 1997). Forward and side scatter are obtained from the 488 nm excitation source. Detection channels are referred to by the laser used (405 nm violet VL, 488 nm blue BL, and 640 nm red RL) and the detector number in order of possible detectors with a longer wavelength. Thus RL1, as used for detecting di-S-C3(5), implies the red laser and the 675/30 detector. Data are collected from all channels, using a dynamic range of 7 logs. Many parameters may be used to vary the precise performance of the instrument. Those we found material to provide the best reproducibility and to minimise carryover, and their selected values, are as follows: Automatic prime—60 secs (in Qsol buffer); Pre-plate shake—15 s and 1500 rpm; Sip time—2 s (actual sample uptake); Additional sip time—0.5 s (the gap between sips); Pump speed—29 rpm (1.5 μL·s^−1 sample uptake); Plate model—U-bottom well plate (for 96 well plates); Mid plate cleanup—After every well (4 washes; 0.5 s each in Qsol buffer); Inter-well shake—1500 rpm; after 6 wells, 4 sec in Qsol buffer; Flush and Clean—30 sec with Decon and Clean buffers followed by 60 sec with deionised water. The Forecyt™ software supplied with the instrument may be used to gate and display all the analyses post hoc. It, and the FlowJo software, were used in the preparation of the cytograms shown. Where used, di-S-C3(5) was present at a final concentration of 3 μM; its analysis used excitation at 640 nm and detection at 675±15 nm, the fluorescence channel being referred to as RL1. For DNA analyses, cells were fixed by injection into ice-cold ethanol (final concentration 70%), washed twice by centrifugation in 0.1 M-Tris/HCl buffer, pH 7.4, before resuspension in the same buffer containing mithramycin (50 μg mL^−1) and ethidium bromide (25 μg mL^−1), MgCl2, (25 mM) and NaCl (100 mM) (Boye et al. 1983). […] All the solutions and media used were filtered through 0.2 μm filter.
Samples were taken at various times during the day, kept at 4° C., delivered to the Manchester laboratory by taxi, plated out (LB agar containing as appropriate the stated antibiotics at 3 times normal MIC) to assess microbial numbers and antibiotic sensitivity, the remaining sample kept again at 4° C., and analysed flow cytometrically within 18 h. For flow cytometric assessment, cells were diluted into 37° C. Terrific Broth containing 3 μM diS-C3(5) plus any appropriate antibiotic, and assayed as above. For other experiments (not shown) cells were filtered (0.45 μm) and diluted as appropriate into warmed terrific broth.
Finally, we wished to determine whether this method, as developed in laboratory cultures, could be applied to candidate UTI specimens ‘as received’ in a doctor's surgery.
(In flow cytometry, cells or beads pass a laser one at a time.)

The mark [1] stands for this setting: UTI sample May 25, 2018 (first listed).
[2] abbreviates: UTI sample May 25, 2018 (second listed).

`O=C(O)c1cn(C2CC2)c2cc(N3CCNCC3)c(F)cc2c1=O` [Ciprofloxacin]: in the experiment with E. coli MG1655, the “Effect on cell proliferation” value is reported as “work effectively”.

For `O=C1CN(/N=C/c2ccc([N+](=O)[O-])o2)C(=O)N1` [Nitrofurantoin], the Antibiotic sensitivity result is listed as “S” in the experiment on E. coli in UTI samples (UTI sample Jul. 16, 2018); “R” with E. coli in UTI samples (UTI sample Jul. 18, 2018); “S” in the experiment with E. coli in UTI samples (UTI sample Jul. 20, 2018); “S” with E. coli in UTI samples (UTI sample Jun. 6, 2018); “S” with E. coli in UTI samples (setting [1]); “S” in the experiment with E. coli in UTI samples (setting [2]).

On to `COc1cc(Cc2cnc(N)nc2N)cc(OC)c1OC` [Trimethoprim], for which the Antibiotic sensitivity result with E. coli in UTI samples (UTI sample Jul. 16, 2018) was “S”; with E. coli in UTI samples (UTI sample Jul. 18, 2018), “S”; in the experiment on E. coli in UTI samples (UTI sample Jul. 20, 2018), “R”; with E. coli in UTI samples (UTI sample Jun. 6, 2018) it was “S”; in the experiment on E. coli in UTI samples (setting [1]), “R”; with E. coli in UTI samples (setting [2]), “S”. In addition, the “Effect on cell proliferation” value in the experiment with E. coli MG1655 is reported as “work effectively”.

As to `CC1(C)S[C@@H]2[C@H](NC(=O)[C@H](N)c3ccccc3)C(=O)N2[C@H]1C(=O)O` [Ampicillin], the Antibiotic sensitivity entry is listed as “R” with E. coli in UTI samples (UTI sample Jul. 16, 2018); “R” with E. coli in UTI samples (UTI sample Jul. 18, 2018); “S” in the experiment on E. coli in UTI samples (UTI sample Jul. 20, 2018); “R” in the experiment on E. coli in UTI samples (UTI sample Jun. 6, 2018); “R” in the experiment on E. coli in UTI samples (setting [1]); “S” in the experiment on E. coli in UTI samples (setting [2]). In the experiment on E. coli MG1655, the “Effect on cell proliferation” value is “work effectively”.
